Measurements as given in PubChem BioAssay AID2060499 (Molecular Pharmacology Branch, DTP, NCI, 2025).

System: 777334-354-R2-J4-PDC tumor spheroids with HUVEC/MSC, viability
Test: Anticancer human tumor 777334-354-R2-J4-PDC patient-derived pancreatic adenocarcinoma cell line growth inhibition [GQUAD]
Conditions: for IC50: curve of first compound; for viability, T/C: stronger effect = lower value
Description: DNA G-quadruplex Stabilizer Agents in Combinations in Complex Spheroids
A high-throughput screen of multi-cell type tumor spheroids was designed to identify active combinations of DNA G-quadruplex stabilizer agents and targeted small molecules. Complex spheroids include a stromal component modeled by human endothelial cells (HUVEC) and fibroblasts modeled by human mesenchymal stem cells (MSCs). The concentration ranges selected for each drug and investigational agent were based upon clinically achievable concentrations if the clinical Cmax of the agent was known.
Compounds. The drugs and investigational agents: pidnarulex (CX-5461; NSC782164), APTO-253 (NSC789042), BRACO-19 (NSC847499), peposertib (NSC802822), ceralasertib (NSC780249), elimusertib (NSC800525), camonsertib (NSC841442), AZD-1390 (NSC803789), olaparib (NSC753686), talazoparib (NSC767125), ART-558 (NSC835418), sotorasib (NSC818433), MRTX-1133 (NSC836407), SN-38 (NSC673596), topotecan (NSC609699), etoposide (NSC141540), doxorubicin (NSC123127), gemcitabine (NSC613327), 5-fluorouracil (NSC19893), paclitaxel (NSC125973), vemurafenib (NSC761431), panobinostat (NSC761190), R-306465 (JNJ-16241199; NSC773264), adavosertib (NSC754352), TP-3654 (NSC805149), carboplatin (NSC241240), KSQ-4279 (NSC840948), and staurosporine (NSC755774) were obtained from the National Cancer Institute (NCI) Developmental Therapeutics Program Chemical Repository (34). The FDA-approved anticancer drug set is available from the NCI Developmental Therapeutics Program. […] The stock solutions were prepared in dimethyl sulfoxide (DMSO, Sigma-Aldrich, St. Louis, MO, cat. D2650) at 800-fold the tested concentration and stored at -70 degrees C prior to their use. All drugs and investigational agents were tested over a range starting from a high concentration at or near the clinical Cmax and decreasing in half-log increments. If the clinical Cmax for an agent had not been determined, the highest concentration tested was 10 microM.
2.3 Cell Culture. All cells were maintained in an incubator at 37 degrees C and 5% CO2 with 95% humidity. The PDC lines were cultured according to standard operating procedures established by the NCI PDMR. All PDCs were thawed and cultured in Matrigel-coated flasks prepared with a working solution of 1X Ham's F-12 nutrient mix, without supplementation (Invitrogen, cat. 11765054), 100 U/mL penicillin-streptomycin (Invitrogen, cat. 15140122), and 2.5% Matrigel (Corning Inc., cat. 354248) for the first three passages. The 857933-349-R-J2-PDC line was cultured in 6C/Colon 1B media, which includes advanced DMEM/F-12 (Thermo Fisher Scientific, cat. 12634028), 10 mM HEPES (Thermo Fisher Scientific, cat. 15630080), 1X GlutaMAX supplement (Thermo Fisher Scientific, cat. 35050061), 0.1 mg/mL primocin (InvivoGen, cat. ant-pm-2), 10% defined fetal bovine serum, heat inactivated (HyClone Laboratories Inc., cat. SH30070.03HI), 50% L-WRN conditioned media (ATCC, cat. CRL-3276), 1.25 mM N-Acetyl-L-cysteine (Sigma-Aldrich, cat. A9165), 10 mM nicotinamide (Sigma-Aldrich, cat. N0636), 1X B-27 supplement (Thermo Fisher Scientific, cat. 17504044), 1X N-2 supplement (Thermo Fisher Scientific, cat. 17502048), 10 microM Y-27632 dihydrochloride (Tocris Bioscience, cat. 1254), and 50 ng/mL human EGF recombinant protein (Thermo Fisher Scientific, cat. PHG0311). The 485176-168-R4-J1-PDC line was cultured in Panc media, which includes all 6C/Colon 1B media components plus 100 ng/mL human FGF-10 (Thermo Fisher Scientific, cat. 100-26), 500 nM SB-431542 (Selleckchem, cat. S1067), and gastrin (Tocris, cat. 3006).
[…]

[1] = second compound 0.0316 µM, first compound 0.0316 µM
[2] = second compound 0.0316 µM, first compound 0.1 µM
[3] = second compound 0.0316 µM, first compound 0.316 µM
[4] = second compound 0.0316 µM, first compound 1 µM
[5] = second compound 0.0316 µM, first compound 3.16 µM
[6] = second compound 0.0316 µM, first compound 10 µM
[7] = second compound 0.1 µM, first compound 0.0316 µM
[8] = second compound 0.1 µM, first compound 0.1 µM
[9] = second compound 0.1 µM, first compound 0.316 µM
[10] = second compound 0.1 µM, first compound 1 µM
[11] = second compound 0.1 µM, first compound 3.16 µM
[12] = second compound 0.1 µM, first compound 10 µM
[13] = second compound 0.316 µM, first compound 0.0316 µM
[14] = second compound 0.316 µM, first compound 0.1 µM
[15] = second compound 0.316 µM, first compound 0.316 µM
[16] = second compound 0.316 µM, first compound 1 µM
[17] = second compound 0.316 µM, first compound 3.16 µM
[18] = second compound 0.316 µM, first compound 10 µM
[19] = second compound 1 µM, first compound 0.0316 µM
[20] = second compound 1 µM, first compound 0.1 µM
[21] = second compound 1 µM, first compound 0.316 µM
[22] = second compound 1 µM, first compound 1 µM
[23] = second compound 1 µM, first compound 3.16 µM
[24] = second compound 1 µM, first compound 10 µM
[25] = second compound 3.16 µM, first compound 0.0316 µM
[26] = second compound 3.16 µM, first compound 0.1 µM
[27] = second compound 3.16 µM, first compound 0.316 µM
[28] = second compound 3.16 µM, first compound 1 µM
[29] = second compound 3.16 µM, first compound 3.16 µM
[30] = second compound 3.16 µM, first compound 10 µM
[31] = second compound 10 µM, first compound 0.0316 µM
[32] = second compound 10 µM, first compound 0.1 µM
[33] = second compound 10 µM, first compound 0.316 µM
[34] = second compound 10 µM, first compound 1 µM
[35] = second compound 10 µM, first compound 3.16 µM
[36] = second compound 10 µM, first compound 10 µM
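Further: spheroids exposed to compounds for 7 days before readout.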

Q: Which IC50 (second compound 0.0316 µM) does the source give for `CC(C)(O)C1CCC(Nc2ccc3ncc(-c4cccc(C(F)(F)F)c4)n3n2)CC1` (centres undefined) + Cc1cnc(CNC(=O)c2c(=O)c3ccc(N4CCCN(C)CC4)nc3n3c2sc2ccccc23)cn1 here?
A: 880 nM

Q: What about the IC50 (second compound 0.1 µM) of the same compound?
A: 806 nM

Q: And the IC50 (second compound 0.316 µM)?
A: 838 nM

Q: And the IC50 (second compound 1 µM)?
A: 913 nM

Q: And the IC50 (second compound 3.16 µM)?
A: 776 nM

Q: And the IC50 (second compound 10 µM)?
A: < 31.6 nM

Q: What about the viability, T/C [1] of the same compound?
A: 105%

Q: And the viability, T/C [2]?
A: 74%

Q: And the viability, T/C [3]?
A: 94.5%

Q: And the viability, T/C [4]?
A: 44.8%

Q: What about the viability, T/C [5] of the same compound?
A: 27.7%

Q: And the viability, T/C [6]?
A: 35.2%

Q: And the viability, T/C [7]?
A: 85%

Q: What about the viability, T/C [8] of the same compound?
A: 74%

Q: What about the viability, T/C [9] of the same compound?
A: 79.5%

Q: What about the viability, T/C [10] of the same compound?
A: 43.2%

Q: And the viability, T/C [11]?
A: 29.1%

Q: And the viability, T/C [12]?
A: 35.4%

Q: What about the viability, T/C [13] of the same compound?
A: 80.8%

Q: What about the viability, T/C [14] of the same compound?
A: 71.5%

Q: What about the viability, T/C [15] of the same compound?
A: 71.5%

Q: What about the viability, T/C [16] of the same compound?
A: 46.5%

Q: What about the viability, T/C [17] of the same compound?
A: 29.1%

Q: What about the viability, T/C [18] of the same compound?
A: 31.3%

Q: What about the viability, T/C [19] of the same compound?
A: 63%

Q: And the viability, T/C [20]?
A: 67.4%

Q: And the viability, T/C [21]?
A: 67%

Q: And the viability, T/C [22]?
A: 48.6%

Q: And the viability, T/C [23]?
A: 33%

Q: What about the viability, T/C [24] of the same compound?
A: 30.7%

Q: What about the viability, T/C [25] of the same compound?
A: 61.4%

Q: And the viability, T/C [26]?
A: 68.9%

Q: What about the viability, T/C [27] of the same compound?
A: 56.9%

Q: And the viability, T/C [28]?
A: 48.4%

Q: What about the viability, T/C [29] of the same compound?
A: 24.4%

Q: What about the viability, T/C [30] of the same compound?
A: 23.9%

Q: And the viability, T/C [31]?
A: 51.5%

Q: And the viability, T/C [32]?
A: 40.1%

Q: And the viability, T/C [33]?
A: 48.3%

Q: What about the viability, T/C [34] of the same compound?
A: 36.1%

Q: And the viability, T/C [35]?
A: 0.23%

Q: And the viability, T/C [36]?
A: 0.19%

Q: `COc1ncnc(C2CC2)c1-c1ncc2cnn(Cc3ccc(-c4nc(C(F)(F)F)cn4C(C)C)cc3)c2n1` + Cc1cnc(CNC(=O)c2c(=O)c3ccc(N4CCCN(C)CC4)nc3n3c2sc2ccccc23)cn1 was tested. Which IC50 (second compound 0.0316 µM) did it give?
A: > 10000 nM

Q: What about the IC50 (second compound 0.1 µM) of the same compound?
A: > 10000 nM

Q: And the IC50 (second compound 0.316 µM)?
A: > 10000 nM

Q: And the IC50 (second compound 1 µM)?
A: > 10000 nM

Q: What about the IC50 (second compound 3.16 µM) of the same compound?
A: > 10000 nM

Q: And the IC50 (second compound 10 µM)?
A: > 10000 nM

Q: What about the viability, T/C [1] of the same compound?
A: 106%

Q: And the viability, T/C [2]?
A: 94.8%

Q: What about the viability, T/C [3] of the same compound?
A: 101%

Q: What about the viability, T/C [4] of the same compound?
A: 92.5%

Q: What about the viability, T/C [5] of the same compound?
A: 106%

Q: What about the viability, T/C [6] of the same compound?
A: 95%

Q: What about the viability, T/C [7] of the same compound?
A: 91.5%

Q: What about the viability, T/C [8] of the same compound?
A: 83.8%

Q: What about the viability, T/C [9] of the same compound?
A: 97.6%

Q: What about the viability, T/C [10] of the same compound?
A: 80.8%

Q: What about the viability, T/C [11] of the same compound?
A: 92.4%

Q: And the viability, T/C [12]?
A: 90.3%

Q: And the viability, T/C [13]?
A: 82.8%

Q: What about the viability, T/C [14] of the same compound?
A: 81%

Q: What about the viability, T/C [15] of the same compound?
A: 72%

Q: What about the viability, T/C [16] of the same compound?
A: 85.8%

Q: What about the viability, T/C [17] of the same compound?
A: 87.8%

Q: And the viability, T/C [18]?
A: 86.5%

Q: And the viability, T/C [19]?
A: 65.3%

Q: What about the viability, T/C [20] of the same compound?
A: 75.7%

Q: What about the viability, T/C [21] of the same compound?
A: 67.4%

Q: What about the viability, T/C [22] of the same compound?
A: 76.3%

Q: What about the viability, T/C [23] of the same compound?
A: 77.4%

Q: And the viability, T/C [24]?
A: 82.1%

Q: What about the viability, T/C [25] of the same compound?
A: 64.3%

Q: And the viability, T/C [26]?
A: 73.5%

Q: What about the viability, T/C [27] of the same compound?
A: 55%

Q: And the viability, T/C [28]?
A: 65.7%

Q: What about the viability, T/C [29] of the same compound?
A: 80.8%

Q: What about the viability, T/C [30] of the same compound?
A: 70.3%

Q: And the viability, T/C [31]?
A: 55.5%

Q: And the viability, T/C [32]?
A: 63.6%

Q: What about the viability, T/C [33] of the same compound?
A: 57.9%

Q: What about the viability, T/C [34] of the same compound?
A: 59.2%

Q: What about the viability, T/C [35] of the same compound?
A: 58.2%

Q: What about the viability, T/C [36] of the same compound?
A: 56.7%
